How the values were obtained:
Assay type in all cases: physicochemical
[1] = Long term stability of amorphous Ubrogepant (HPLC purity, PXRD); settings: long term stability at 25 ± 2° C. under 60 ± 5% humidity condition upto 6 months
Procedure: (§1) Eighth aspect of the first embodiment, the accelerated and long-term stability data of amorphous Ubrogepant of formula-1 is outlined in Table-1 as follows: […]
(§2) Ubrogepant and its related substances were analyzed by HPLC with the following chromatographic conditions: Apparatus: A liquid chromatographic system is to be equipped with variable wavelength UV-Detector and integrator; Column: Xbridge C18 150×4.6 mm, 3.5 μm Ghost-Buster column: Ghost buster 50 mm×4.6 mm; Wavelength: 210 nm; Column temperature: 25° C.; Injection volume: 5 μL; Elution: Gradient; Diluent: Acetonitrile: Water; Needle wash: Diluent.
(§3) The PXRD analysis of compound of the present invention was carried out by using BRUKER-Axis/D8 ADVANCE (DAVINCI) X-Ray diffractometer using CuKα radiation of wavelength 1.5406 A°.

[2] = Accelerated stability of amorphous Ubrogepant (HPLC purity, PXRD); settings: accelerated stability at 40 ± 2° C. under 75 ± 5% humidity condition upto 6 months
Procedure: as §1, §2, §3

[3] = Polymorphic stress study of amorphous Ubrogepant
Procedure: Ninth aspect of the first embodiment of the present invention, amorphous Ubrogepant is also stable under below Polymorphic stress study conditions:
as §3

PXRD Result [1]: stable
Purity by HPLC [1]: >99.75%
PXRD Result [2]: stable
Purity by HPLC [2]: >99.75%
Result (polymorphic stability) ([3]; hygroscopicity analysis (75 ± 5% RH), 24 hours): stable
Result (polymorphic stability) ([3]; stress study under 10 tons pressure, 3 mins): stable
Result (polymorphic stability) ([3]; thermal analysis at 60° ± 2° C., 24 hours): stable
Result (polymorphic stability) ([3]; under UV light at 254 nm, 24 hours): stable
SMILES: C[C@@H]1[C@H](c2ccccc2)C[C@H](NC(=O)c2cnc3c(c2)C[C@@]2(C3)C(=O)Nc3ncccc32)C(=O)N1CC(F)(F)F [Amorphous Ubrogepant, (3′S)—N-((3S,5S,6R)-6-methyl-2-oxo-5-phenyl-1-(2,2,2-trifluoroethyl)piperidin-3-yl)-2′-oxo-1′,2′,5,7-tetrahydrospiro [cyclopenta[b]pyridine-6,3′-pyrrolo[2,3-b]pyridine]-3-carboxamide]
